Data: ChEMBL document CHEMBL5360581, “Discovery of a novel dual functional phenylpyrazole-styryl hybrid that induces apoptotic and autophagic cell death in bladder cancer cells” (Eur J Med Chem, 2023)
The source made the active and inactive calls. The calls are words filed in the database; no cut-off is given here.

What was measured:
[1] = test system: EJ-28; assay: Induction of apoptosis in human EJ-28 cells assessed as upregulation of phosphorylated […] level incubated for 24 to 72 hrs by Western blotting analysis; type: functional, cell-based; details: time 24-72 hrs
[2] = test system: EJ-28; assay: Anticancer activity against human EJ-28 cells cultured as 3D spheroids at 2.5 to 20 uM measured upto 5 days by PI/Hoechst 33342 staining based fluorescence microscopic analysis; type: functional, cell-based; details: dose 2.5-20 µM, time <= 5.0 day
[3] = test system: EJ-28; assay: Antiproliferative activity against human EJ-28 cells assessed as reduction in cell viability at 20 uM measured for 72 hrs by MTT assay; type: functional, cell-based
[4] = test system: EJ-28; assay: Induction of cell cycle arrest in human EJ-28 cells assessed as accumulation of cells at sub-G0/G1 phase at 1.25 uM incubated for 48 hrs by propidium iodide staining based flow cytometry (reference value: 48%); type: functional
[5] = Selectivity index, ratio of IC50 for cytotoxicity against human NHDF cells to IC50 for cytotoxicity against human SW620 cells
[6] = test system: EJ-28; assay: Induction of cell cycle arrest in human EJ-28 cells assessed as accumulation of cells at sub-G0/G1 phase at 5 uM incubated for 48 hrs by propidium iodide staining based flow cytometry (reference value: 48%); type: functional
[7] = Toxicity in Zebrafish embryo assessed as oedema at 12.5 uM administered for 4 hrs post fertilization and measured after 3 days post fertilization; design: species or system Danio rerio; details: in vivo, 72 h, time 3 day
[8] = test system: EJ-28; assay: Antimigratory activity in human EJ-28 cells at 1.25 to 10 uM measured for 24 hrs by imaging analysis; type: functional, cell-based; details: dose 1.25-10 µM
[9] = test system: EJ-28; assay: Induction of autophagy in human EJ-28 cells assessed as upregulation of LC3B-I expression at 5 to 12.5 uM incubated for 24 to 72 hrs by Western blot analysis; type: functional, cell-based; details: dose 5-12.5 µM, time 24-72 hrs
[10] = test system: EJ-28; assay: Induction of apoptosis in human EJ-28 cells assessed as upregulation of cleaved caspases-8 expression by Western blotting analysis; type: functional, cell-based; details: time 24-72 hrs
[11] = test system: HT-1080; assay: Cytotoxicity against human HT-1080 cells assessed inhibition of cell growth incubated for 72 hrs by MTT assay; type: functional, cell-based; details: HT-1080, 72 h

Q: Which results are given for O=[N+]([O-])c1cccc(/C=C/c2cc(-c3cc(Cl)ccc3O)n(-c3ccccc3)n2)c1?
A: Activity [1]: Active; Activity [2]: Active; Activity [3]: Active; Activity [4]: 53%; Ratio IC50 [5]: 2.6; Activity [6]: 58%; Activity [7]: Non-Toxic; inhibition [8]: Active; Activity [9]: Active; Activity [10]: Dose-Dependent Effect; IC50 [11]: 13 µM
